Data as given in US20230192878A1, “METHODS, THERAPIES AND USES FOR TREATING CANCER” (PFIZER INC., priority 2020, published 2023).

Legend:
[1] = test system: RPMI8226; test: BCMAxCD3 bispecific mediated cell killing with human T cells, with or without GSI; type: cell-based; details: for RPMI8226 cell viability (% control): 60 hours, with or without 1 μM GSI
Experimental: (§1) CD3^+ T cells from PBMCs (Stem Cell Technologies) were negatively selected using EasySep Human T cell enrichment kit (Stem Cell Technologies). Multiple myeloma cells expressing luciferase (MM.1S-luc, OPM2-luc, H929-luc, Molp8-luc, RPM18226-luc) were treated with 1 μM GSI […]. After 24 hours, cells were seeded with 50,000 CD3^+ pan T cells in a clear 96-well V-bottom plate. Cells were further treated with a range of BCMAxCD3 bispecific antibody concentrations with or without 1 μM GSI. 60 hours after treatment, luciferase activity in treated cells was analyzed using NeoLite reagent kit (Perkin Elmer) and acquired on VictorX multimode plate reader (Perkin Elmer). Cell viability was calculated by dividing luciferase activity of treated cells over luciferase activity of untreated control (no BCMAxCD3 bispecific antibody added).

[2] = test system: OPM2-luc; test: as above; type: cell-based; details: for OPM2 cell viability (% control): 60 hours, with or without 1 μM GSI
Experimental: as §1

[3] = test system: MM.1S-luc; test: as above; type: cell-based; details: for MM.1S cell viability (% control): 60 hours, with or without 1 μM GSI
Experimental: as §1

[4] = test system: RPMI8226; test: Cell surface BCMA expression after GSI, time course and washout; type: cell-based
Experimental: (§2) Multiple myeloma cells (MM.1S, OPM2, H929, Molp8, RPMI8226) were seeded in a 6-well plate at 800,000 cells/2 ml/well with GSI diluted at 1 μM in RPMI medium (with 0.1% DMSO). Cells were collected to evaluate cell surface BCMA expression at baseline, and then at 3 hours, 6 hours and 24 hours after addition of the GSI. After 24 hours of incubation with the GSI, cells were washed twice in PBS and re-plated in fresh 6-well plates. […] At the indicated time points, samples were stained with a ZombieNIR Viability dye (Biolegend) for 20 minutes at room temperature at 1 in 500 dilution in PBS, washed with PBS+2% FBS and further stained with anti-BCMA PE-labelled antibody diluted in PBS+2% FBS for 30 minutes at 4° C. Samples were acquired on BD Flow Cytometer and analyzed using FlowJo software. Dead cells were removed from the analysis by gating on ZombieNIR negative population. BCMA MFI was plotted as a histogram.

[5] = test system: OPM2; test: as above; type: cell-based
Experimental: as §2

[6] = test system: Molp8; test: as above; type: cell-based
Experimental: as §2

[7] = test system: MM.1S; test: as above; type: cell-based
Experimental: as §2

[8] = test system: H929; test: as above; type: cell-based
Experimental: as §2

[9] = test system: OPM2; test: Soluble BCMA (sBCMA) shedding after GSI (ELISA); type: cell-based, Human; set-up: unit not given here; details: Table 6 (sBCMA in supernatant, ELISA), 24 hours
[10] = test system: Raji; test: Cell surface BCMA expression after GSI, time course and washout, lymphoma cells; type: cell-based
Experimental: as §2, with “Lymphoma” for “Multiple myeloma”, “(Raji)” for “(MM.1S, OPM2, H929, Molp8, RPMI8226)”, “mean fluorescence intensity (MFI)” for “MFI”

[11] = GSI 1 μM for 24 h, 3 h post wash
[12] = GSI 1 μM for 24 h, 5 h post wash
[13] = GSI 1 μM for 24 h, 24 h post wash

## PF-06863135: heterodimeric humanized full-length bispecific antibody with one BCMA binding arm and one CD3 binding arm
[1]; BCMAxCD3 0.00064 nM
  RPMI8226 cell viability (% control): 113.2 ± 10.6 % control
[1]; BCMAxCD3 0.0032 nM
  RPMI8226 cell viability (% control): 130.5 ± 19.5 % control
[1]; BCMAxCD3 0.016 nM
  RPMI8226 cell viability (% control): 113.4 ± 1.3 % control
[1]; BCMAxCD3 0.08 nM
  RPMI8226 cell viability (% control): 54.2 ± 16.9 % control
[1]; BCMAxCD3 0.4 nM
  RPMI8226 cell viability (% control): 28.7 ± 13.6 % control
[1]; BCMAxCD3 2 nM
  RPMI8226 cell viability (% control): 25.7 ± 5.5 % control
[1]; BCMAxCD3 10 nM
  RPMI8226 cell viability (% control): 19.9 ± 1.1 % control
[1]; BCMAxCD3 50 nM
  RPMI8226 cell viability (% control): 19.4 ± 5 % control
[2]; BCMAxCD3 0.00064 nM
  OPM2 cell viability (% control): 83.8 ± 3.4 % control
[2]; BCMAxCD3 0.0032 nM
  OPM2 cell viability (% control): 84.3 ± 3.1 % control
[2]; BCMAxCD3 0.016 nM
  OPM2 cell viability (% control): 68.4 ± 2.4 % control
[2]; BCMAxCD3 0.08 nM
  OPM2 cell viability (% control): 43.6 ± 6.4 % control
[2]; BCMAxCD3 0.4 nM
  OPM2 cell viability (% control): 3.1 ± 0.8 % control
[2]; BCMAxCD3 2 nM
  OPM2 cell viability (% control): 2.8 ± 0.8 % control
[2]; BCMAxCD3 10 nM
  OPM2 cell viability (% control): 2 ± 0.2 % control
[2]; BCMAxCD3 50 nM
  OPM2 cell viability (% control): 3.3 ± 0.3 % control
[3]; BCMA × CD3 0.00001 nM
  MM.1S cell viability (% control): 80.6 ± 3.9 % control
[3]; BCMA × CD3 0.00005 nM
  MM.1S cell viability (% control): 79.8 ± 2.9 % control
[3]; BCMA × CD3 0.00026 nM
  MM.1S cell viability (% control): 78 ± 0.9 % control
[3]; BCMA × CD3 0.00128 nM
  MM.1S cell viability (% control): 87.7 ± 4.4 % control
[3]; BCMA × CD3 0.0064 nM
  MM.1S cell viability (% control): 108 ± 4.5 % control
[3]; BCMA × CD3 0.032 nM
  MM.1S cell viability (% control): 2.5 ± 0.3 % control
[3]; BCMA × CD3 0.16 nM
  MM.1S cell viability (% control): 1.7 ± 0.8 % control
[3]; BCMA × CD3 0.8 nM
  MM.1S cell viability (% control): 2.4 ± 0.5 % control
[3]; BCMA × CD3 4 nM
  MM.1S cell viability (% control): 1.3 ± 0.8 % control

## CCC[C@H](N[C@H]1CCc2cc(F)cc(F)c2C1)C(=O)Nc1cn(C(C)(C)CNCC(C)(C)C)cn1 [GSI, nirogacestat]
[4]; RPMI8226, GSI 1 μM for 24 h, 3 h post wash
  BCMA (-PE) MFI: 6557
[4]; RPMI8226, GSI 1 μM for 24 h, 5 h post wash
  BCMA (-PE) MFI: 4437
[4]; RPMI8226, GSI 1 μM for 24 h, 24 h post wash
  BCMA (-PE) MFI: 2688
[4]; RPMI8226, GSI 1 μM, 3 h after GSI
  BCMA (-PE) MFI: 4437
[4]; RPMI8226, GSI 1 μM, 6 h after GSI
  BCMA (-PE) MFI: 4527
[4]; RPMI8226, GSI 1 μM, 24 h after GSI
  BCMA (-PE) MFI: 6340
[5]; OPM2, GSI 1 μM for 24 h, 3 h post wash
  BCMA (-PE) MFI: 21621
[5]; OPM2, GSI 1 μM for 24 h, 5 h post wash
  BCMA (-PE) MFI: 11050
[5]; OPM2, GSI 1 μM for 24 h, 24 h post wash
  BCMA (-PE) MFI: 2624
[5]; OPM2, GSI 1 μM, 3 h after GSI
  BCMA (-PE) MFI: 9257
[5]; OPM2, GSI 1 μM, 6 h after GSI
  BCMA (-PE) MFI: 9854
[5]; OPM2, GSI 1 μM, 24 h after GSI
  BCMA (-PE) MFI: 20592
[6]; Molp8, GSI 1 μM for 24 h, 3 h post wash
  BCMA (-PE) MFI: 7523
[6]; Molp8, GSI 1 μM for 24 h, 5 h post wash
  BCMA (-PE) MFI: 5050
[6]; Molp8, GSI 1 μM for 24 h, 24 h post wash
  BCMA (-PE) MFI: 2960
[6]; Molp8, GSI 1 μM, 3 h after GSI
  BCMA (-PE) MFI: 2461
[6]; Molp8, GSI 1 μM, 6 h after GSI
  BCMA (-PE) MFI: 3098
[6]; Molp8, GSI 1 μM, 24 h after GSI
  BCMA (-PE) MFI: 5307
[7]; [11]
  BCMA (-PE) MFI: 33509
[7]; [12]
  BCMA (-PE) MFI: 23906
[7]; [13]
  BCMA (-PE) MFI: 11170
[7]; GSI 1 μM, 3 h after GSI
  BCMA (-PE) MFI: 13690
[7]; GSI 1 μM, 6 h after GSI
  BCMA (-PE) MFI: 14920
[7]; GSI 1 μM, 24 h after GSI
  BCMA (-PE) MFI: 25602
[8]; H929, GSI 1 μM for 24 h, 3 h post wash
  BCMA (-PE) MFI: 15422
[8]; H929, GSI 1 μM for 24 h, 5 h post wash
  BCMA (-PE) MFI: 9313
[8]; H929, GSI 1 μM for 24 h, 24 h post wash
  BCMA (-PE) MFI: 8423
[8]; H929, GSI 1 μM, 3 h after GSI
  BCMA (-PE) MFI: 3653
[8]; H929, GSI 1 μM, 6 h after GSI
  BCMA (-PE) MFI: 3423
[8]; H929, GSI 1 μM, 24 h after GSI
  BCMA (-PE) MFI: 8245
[9]; OPM2, GSI 0.01 nM
  BCMA (-PE) MFI: 6043.3
[9]; OPM2, GSI 0.1 nM
  BCMA (-PE) MFI: 8872.2
[9]; OPM2, GSI 1 nM
  BCMA (-PE) MFI: 8014
[9]; OPM2, GSI 2.5 nM
  BCMA (-PE) MFI: 7726.5
[9]; OPM2, GSI 5 nM
  BCMA (-PE) MFI: 7617.3
[9]; OPM2, GSI 10 nM
  BCMA (-PE) MFI: 6488.6
[9]; OPM2, GSI 25 nM
  BCMA (-PE) MFI: 4487.9
[9]; OPM2, GSI 50 nM
  BCMA (-PE) MFI: 3055.7
[9]; OPM2, GSI 100 nM
  BCMA (-PE) MFI: 1238.6
[9]; OPM2, GSI 500 nM
  BCMA (-PE) MFI: 23.8
[9]; OPM2, GSI 1000 nM
  BCMA (-PE) MFI: 0
[1]; RPMI8226, 1 μM GSI
  Enhancement of BCMAxCD3 bispecific antibody mediated cell killing by GSI: 24 ×
[2]; OPM2, 1 μM GSI
  Enhancement of BCMAxCD3 bispecific antibody mediated cell killing by GSI: 21 ×
[3]; MM.1S, 1 μM GSI
  Enhancement of BCMAxCD3 bispecific antibody mediated cell killing by GSI: 21 ×
[10]; [11]
  BCMA (-PE) MFI: 1619
[10]; [12]
  BCMA (-PE) MFI: 1822
[10]; [13]
  BCMA (-PE) MFI: 795
[10]; GSI 1 μM, 3 h after GSI
  BCMA (-PE) MFI: 699
[10]; GSI 1 μM, 6 h after GSI
  BCMA (-PE) MFI: 735
[10]; GSI 1 μM, 24 h after GSI
  BCMA (-PE) MFI: 1506
